Assay results reported in PubChem BioAssay AID2060912 (Molecular Pharmacology Branch, DTP, NCI, 2025).

Test system: HUVEC/MSC spheroids viability
Test: Human HUVEC/MSC cell line growth inhibition [KRAS2];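 on viability, T/C: percent of DMSO vehicle control luminescence so 100% = untreated viability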
Conditions: for IC50: curve of first compound; for viability, T/C: stronger effect = lower value
From the text: Multicellular complex tumor spheroid response to RAS pathway inhibitors in combination with a targeted agents in patient-derived cell lines with oncogenic KRAS variants from multiple cancer types
A high-throughput screen of multi-cell type tumor spheroids was designed to identify active combinations of targeted small molecules and KRAS pathway inhibitors. Complex spheroids include a stromal component modeled by human endothelial cells (HUVEC) and fibroblasts modeled by human mesenchymal stem cells (MSCs). The concentration ranges selected for each drug and investigational agent were based upon clinically achievable concentrations if the clinical Cmax of the agent was known. * [This particular assayID is a followup dataset requested by reviewers of the manuscript. It is a test of the HUVEC and MSC without the tumor cells, and was conducted using different drug plates and a different plate layout.]
Compounds. The drugs and investigational agents: BI-3406 (NSC825286), BAY-293 (NSC824723), batoprotafib (TNO155; NSC825523), sotorasib (AMG 510; NSC818433), MRTX1257 (NSC819558), elimusertib (BAY 1895344; NSC800525), molibresib (GSK525762; NSC774829), temuterkib (LY3214996; NSC803410), venetoclax (NSC766270), alisertib (NSC759677), olaparib (NSC753686), talazoparib (NSC767125), erdafitinib (NSC781556), ipatasertib (NSC767898), cabozantinib (NSC761068), nintedanib (NSC756659), abemaciclib (NSC768073), docetaxel (NSC628503), trametinib (NSC758246), and sapanisertib (NSC764658) were obtained from the National Cancer Institute (NCI) Developmental Therapeutics Program Chemical Repository. The FDA-approved anticancer drug set is available from the Developmental Therapeutics Program. […] The stock solutions were prepared in dimethyl sulfoxide (DMSO, Sigma-Aldrich, St. Louis, MO, cat. D2650) at 800-fold the tested concentration and stored at -70 degrees C prior to their use. All drugs and investigational agents were tested over a range starting from a high concentration at or near the clinical Cmax and decreasing in half-log increments. If the clinical Cmax for an agent had not been determined, the highest concentration tested was 10 microM.
Cell Culture. All cells were maintained in an incubator at 37 degrees C and 5% CO2 with 95% humidity. The PDC lines were cultured according to standard operating procedures established by the NCI PDMR (https://pdmr.cancer.gov/sops/default.htm). Briefly, all PDCs were thawed and cultured in Matrigel-coated flasks prepared with a working solution of 1X Ham's F-12 nutrient mix, without supplementation (Invitrogen, Waltham, MA, cat. 11765054), 100 U/mL penicillin-streptomycin (Invitrogen, cat. 15140122), and 2.5% Matrigel (Corning Inc., Corning, NY, cat. 354248) for the first three passages. All PDCs were cultured in complete DMEM/F-12 media containing advanced DMEM/F-12 (Invitrogen, cat. 12634028), 4.9% defined fetal bovine serum, heat inactivated (HyClone Laboratories Inc., Logan, UT, cat. SH30070.03HI), 389 ng/mL hydrocortisone (Sigma-Aldrich, cat. H4001), 9.7 ng/mL human EGF recombinant protein (Invitrogen, cat. PHG0313), 23.4 microg/mL adenine (Sigma-Aldrich, cat. A2786), 97.3 U/mL penicillin-streptomycin (Invitrogen, cat. 15140122), 1.9 mM L-glutamine (Invitrogen, cat. 25030081), and 9.7 microM Y-27632 dihydrochloride (Tocris Bioscience, Bristol, United Kingdom, cat. 1254). The PDCs were cultured in complete DMEM/F12 media without 9.7 microM Y-27632 dihydrochloride for at least two passages prior to the screen. The established cell line HOP-62 was cultured in RPMI 1640 medium, HEPES (Invitrogen, cat. 22400105) with 10% defined fetal bovine serum (HyClone Laboratories Inc., cat. SH30070.03) and 2 mM L-glutamine (Invitrogen, cat. 25030081). The pooled donor HUVEC were cultured in endothelial cell growth medium 2 (PromoCell, Heidelberg, Germany, cat. C-22011) and the hMSC were cultured in mesenchymal stem cell growth medium 2 (PromoCell, cat. C-28009). […]

[1] = second compound 0.0316 µM, first compound 0.0316 µM
[2] = second compound 0.0316 µM, first compound 0.1 µM
[3] = second compound 0.0316 µM, first compound 0.316 µM
[4] = second compound 0.0316 µM, first compound 1 µM
[5] = second compound 0.1 µM, first compound 0.0316 µM
[6] = second compound 0.1 µM, first compound 0.1 µM
[7] = second compound 0.1 µM, first compound 0.316 µM
[8] = second compound 0.1 µM, first compound 1 µM
[9] = second compound 0.316 µM, first compound 0.0316 µM
[10] = second compound 0.316 µM, first compound 0.1 µM
[11] = second compound 0.316 µM, first compound 0.316 µM
[12] = second compound 0.316 µM, first compound 1 µM
[13] = second compound 1 µM, first compound 0.0316 µM
[14] = second compound 1 µM, first compound 0.1 µM
[15] = second compound 1 µM, first compound 0.316 µM
[16] = second compound 1 µM, first compound 1 µM
[17] = second compound 3.16 µM, first compound 0.0316 µM
[18] = second compound 3.16 µM, first compound 0.1 µM
[19] = second compound 3.16 µM, first compound 0.316 µM
[20] = second compound 3.16 µM, first compound 1 µM
[21] = second compound 10 µM, first compound 0.0316 µM
[22] = second compound 10 µM, first compound 0.1 µM
[23] = second compound 10 µM, first compound 0.316 µM
[24] = second compound 10 µM, first compound 1 µM
[25] = second compound 0.0316 µM, first compound 0.00316 µM
[26] = second compound 0.0316 µM, first compound 0.01 µM
[27] = second compound 0.1 µM, first compound 0.00316 µM
[28] = second compound 0.1 µM, first compound 0.01 µM
[29] = second compound 0.316 µM, first compound 0.00316 µM
[30] = second compound 0.316 µM, first compound 0.01 µM
[31] = second compound 1 µM, first compound 0.00316 µM
[32] = second compound 1 µM, first compound 0.01 µM
[33] = second compound 3.16 µM, first compound 0.00316 µM
[34] = second compound 3.16 µM, first compound 0.01 µM
[35] = second compound 10 µM, first compound 0.00316 µM
[36] = second compound 10 µM, first compound 0.01 µM

Compound: CC(C)NCC(C(=O)N1CCN(c2ncnc3c2C(C)CC3O)CC1)c1ccc(Cl)cc1 (stereo unspecified) + C=CC(=O)N1CCN(c2nc(=O)n(-c3c(C)ccnc3C(C)C)c3nc(-c4c(O)cccc4F)c(F)cc23)C(C)C1
- IC50 (second compound 0.0316 µM): > 10000 nM
- IC50 (second compound 0.1 µM): > 10000 nM
- IC50 (second compound 0.316 µM): > 10000 nM
- IC50 (second compound 1 µM): > 10000 nM
- IC50 (second compound 3.16 µM): > 10000 nM
- IC50 (second compound 10 µM): > 10000 nM
- viability, T/C [1]: 87.5%
- viability, T/C [2]: 93.7%
- viability, T/C [3]: 97.1%
- viability, T/C [4]: 77.7%
- viability, T/C (second compound 0.0316 µM, first compound 3.16 µM): 52.4%
- viability, T/C (second compound 0.0316 µM, first compound 10 µM): 53.6%
- viability, T/C [5]: 92.4%
- viability, T/C [6]: 104%
- viability, T/C [7]: 85.8%
- viability, T/C [8]: 76.1%
- viability, T/C (second compound 0.1 µM, first compound 3.16 µM): 54.9%
- viability, T/C (second compound 0.1 µM, first compound 10 µM): 64.9%
- viability, T/C [9]: 98.7%
- viability, T/C [10]: 102%
- viability, T/C [11]: 82.2%
- viability, T/C [12]: 65.8%
- viability, T/C (second compound 0.316 µM, first compound 3.16 µM): 59.4%
- viability, T/C (second compound 0.316 µM, first compound 10 µM): 63.1%
- viability, T/C [13]: 105%
- viability, T/C [14]: 99.4%
- viability, T/C [15]: 96.4%
- viability, T/C [16]: 71.3%
- viability, T/C (second compound 1 µM, first compound 3.16 µM): 58%
- viability, T/C (second compound 1 µM, first compound 10 µM): 68.1%
- viability, T/C [17]: 96.8%
- viability, T/C [18]: 124%
- viability, T/C [19]: 86.6%
- viability, T/C [20]: 84.6%
- viability, T/C (second compound 3.16 µM, first compound 3.16 µM): 62.9%
- viability, T/C (second compound 3.16 µM, first compound 10 µM): 68.9%
- viability, T/C [21]: 110%
- viability, T/C [22]: 119%
- viability, T/C [23]: 102%
- viability, T/C [24]: 64.5%
- viability, T/C (second compound 10 µM, first compound 3.16 µM): 65%
- viability, T/C (second compound 10 µM, first compound 10 µM): 47.2%

Compound: CCN1CCN(Cc2ccc(Nc3ncc(F)c(-c4cc(F)c5nc(C)n(C(C)C)c5c4)n3)nc2)CC1 + C=CC(=O)N1CCN(c2nc(=O)n(-c3c(C)ccnc3C(C)C)c3nc(-c4c(O)cccc4F)c(F)cc23)C(C)C1
- IC50 (second compound 0.0316 µM): > 1000 nM
- IC50 (second compound 0.1 µM): > 1000 nM
- IC50 (second compound 0.316 µM): > 1000 nM
- IC50 (second compound 1 µM): > 1000 nM
- IC50 (second compound 3.16 µM): > 1000 nM
- IC50 (second compound 10 µM): > 1000 nM
- viability, T/C [25]: 76%
- viability, T/C [26]: 95.8%
- viability, T/C [1]: 93.7%
- viability, T/C [2]: 86.6%
- viability, T/C [3]: 129%
- viability, T/C [4]: 107%
- viability, T/C [27]: 96.8%
- viability, T/C [28]: 102%
- viability, T/C [5]: 85.1%
- viability, T/C [6]: 82.9%
- viability, T/C [7]: 129%
- viability, T/C [8]: 116%
- viability, T/C [29]: 113%
- viability, T/C [30]: 106%
- viability, T/C [9]: 98%
- viability, T/C [10]: 87.2%
- viability, T/C [11]: 112%
- viability, T/C [12]: 123%
- viability, T/C [31]: 118%
- viability, T/C [32]: 109%
- viability, T/C [13]: 109%
- viability, T/C [14]: 119%
- viability, T/C [15]: 119%
- viability, T/C [16]: 133%
- viability, T/C [33]: 127%
- viability, T/C [34]: 111%
- viability, T/C [17]: 132%
- viability, T/C [18]: 121%
- viability, T/C [19]: 138%
- viability, T/C [20]: 162%
- viability, T/C [35]: 149%
- viability, T/C [36]: 154%
- viability, T/C [21]: 130%
- viability, T/C [22]: 134%
- viability, T/C [23]: 118%
- viability, T/C [24]: 162%

Compound: Cn1ncnc1[C@H]1c2n[nH]c(=O)c3cc(F)cc(c23)N[C@@H]1c1ccc(F)cc1 + C=CC(=O)N1CCN(c2nc(=O)n(-c3c(C)ccnc3C(C)C)c3nc(-c4c(O)cccc4F)c(F)cc23)C(C)C1
- IC50 (second compound 0.0316 µM): > 100 nM
- IC50 (second compound 0.1 µM): > 100 nM
- IC50 (second compound 0.316 µM): > 100 nM
- IC50 (second compound 1 µM): > 100 nM
- IC50 (second compound 3.16 µM): > 100 nM
- IC50 (second compound 10 µM): > 100 nM
- viability, T/C (second compound 0.0316 µM, first compound 0.000316 µM): 101%
- viability, T/C (second compound 0.0316 µM, first compound 0.001 µM): 100%
- viability, T/C [25]: 74.3%
- viability, T/C [26]: 94.3%
- viability, T/C [1]: 83.1%
- viability, T/C [2]: 105%
- viability, T/C (second compound 0.1 µM, first compound 0.000316 µM): 92.6%
- viability, T/C (second compound 0.1 µM, first compound 0.001 µM): 117%
- viability, T/C [27]: 101%
- viability, T/C [28]: 79.5%
- viability, T/C [5]: 96.2%
- viability, T/C [6]: 83.5%
- viability, T/C (second compound 0.316 µM, first compound 0.000316 µM): 110%
- viability, T/C (second compound 0.316 µM, first compound 0.001 µM): 110%
- viability, T/C [29]: 97.2%
- viability, T/C [30]: 97.1%
- viability, T/C [9]: 99.2%
- viability, T/C [10]: 114%
- viability, T/C (second compound 1 µM, first compound 0.000316 µM): 114%
- viability, T/C (second compound 1 µM, first compound 0.001 µM): 106%
- viability, T/C [31]: 95.4%
- viability, T/C [32]: 106%
- viability, T/C [13]: 106%
- viability, T/C [14]: 86%
- viability, T/C (second compound 3.16 µM, first compound 0.000316 µM): 110%
- viability, T/C (second compound 3.16 µM, first compound 0.001 µM): 141%
- viability, T/C [33]: 101%
- viability, T/C [34]: 140%
- viability, T/C [17]: 130%
- viability, T/C [18]: 93.5%
- viability, T/C (second compound 10 µM, first compound 0.000316 µM): 129%
- viability, T/C (second compound 10 µM, first compound 0.001 µM): 127%
- viability, T/C [35]: 112%
- viability, T/C [36]: 103%
- viability, T/C [21]: 105%
- viability, T/C [22]: 123%
